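Briefly, cells in 96-well plates were exposed to five compound concentrations for 48 h, and endpoints were estimated by linear interpolation. The concentration for 50% growth inhibition is given as GI50. Definition used: TGI = concentration required for complete inhibition of growth.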
Columns and labels:
Assay in all cases: DTP human tumour cell line panel, 48 h
K-562 leukemia = system: K-562 leukemia
HL-60(TB) leukemia = system: HL-60(TB) leukemia
T-47D breast = system: T-47D breast
HCT-116 colon = system: HCT-116 colon
SNB-19 CNS = system: SNB-19 CNS
IGROV1 ovarian = system: IGROV1 ovarian
SK-MEL-5 melanoma = system: SK-MEL-5 melanoma
COLO 205 colon = system: COLO 205 colon
786-0 renal = system: 786-0 renal
SF-539 CNS = system: SF-539 CNS

| SMILES | TGI (K-562 leukemia) [µM] | TGI (HL-60(TB) leukemia) [µM] | TGI (T-47D breast) [µM] | TGI (HCT-116 colon) [µM] | TGI (SNB-19 CNS) [µM] | TGI (IGROV1 ovarian) [µM] | TGI (SK-MEL-5 melanoma) [µM] | TGI (COLO 205 colon) [µM] | TGI (786-0 renal) [µM] | TGI (SF-539 CNS) [µM] | GI50 (SNB-19 CNS) [µM] |
| --- | --- | --- | --- | --- | --- | --- | --- | --- | --- | --- | --- |
| Cc1cc2nc3c(C#N)c(C)c(CCCl)c(Cl)n3c2cc1C | 6.63 | 5.57 | 8.9 | 3.06 | 36.3 | 3.93 | 8.82 | 14.8 | 3.69 | 5.09 | – |
| O=C(CSc1nc2ccc(I)cc2c(=O)n1Cc1ccccc1)Nc1ccccc1 | > 100 | > 100 | > 100 | > 100 | 62.7 | > 100 | > 100 | > 100 | 23.9 | 10.6 | – |
| NC(=Nc1ccccc1)N/N=C/c1c[nH]c2ccccc12 | 30.4 | 4.54 | 6.89 | 8.67 | 14.8 | 32.7 | 1.85 | 0.67 | 7.68 | 1.92 | – |
| O=[N+]([O-])c1c(O)c2nonc2c2nn(-c3ccccc3)nc12 | > 100 | > 100 | > 100 | > 100 | > 100 | > 100 | > 100 | > 100 | > 100 | > 100 | – |
| COC(=O)NC(Cc1ccccc1)NC(=O)OC(C)(C)C (stereo unspecified) | > 100 | > 100 | > 100 | > 100 | > 100 | > 100 | > 100 | > 100 | > 100 | > 100 | – |
| CCOC(=O)c1ccc2nc3n(c2c1)C(c1c(F)cccc1F)SC3 (stereo unspecified) | > 100 | > 100 | > 100 | > 100 | > 100 | > 100 | > 100 | > 100 | > 100 | > 100 | – |
| CCn1c(CCCc2nc3c([nH]2)c(=O)n(C)c(=O)n3C)nc2c1c(=O)n(C)c(=O)n2C | > 100 | > 100 | > 100 | > 100 | > 100 | > 100 | 27.8 | 27 | > 100 | 30.5 | – |
| CC1(C)CCCCCC(O)C(O)CCC(C)(C)C1=O (stereo unspecified) | > 100 | > 100 | > 100 | > 100 | > 100 | > 100 | > 100 | > 100 | > 100 | > 100 | – |
| CCCCCCCCCCCC(=O)N(CCCCCCCCC)CC(O)C(O)C(OC1OC(CO)C(O)C(O)C1O)C(O)CO (stereo unspecified) | 50.2 | 45.8 | 44.3 | 32.8 | 40.4 | 33.6 | 35 | 36.9 | 32.8 | 50.8 | – |
| COc1cc2nc(-c3cccs3)nc(Nc3ccccc3C(=O)NN)c2cc1OC | > 100 | > 100 | > 100 | > 100 | > 100 | > 100 | > 100 | > 100 | > 100 | > 100 | – |
| CCOP(=O)(OCC)/C(=C/n1c(=S)[nH]c2ccccc21)C(=O)OC | > 100 | > 100 | > 100 | > 100 | > 100 | > 100 | > 100 | > 100 | > 100 | > 100 | > 100 |
| O=C(O)C(Cc1ccccc1)Cc1ccccc1 | > 100 | > 100 | > 100 | > 100 | > 100 | > 100 | > 100 | > 100 | > 100 | > 100 | – |
| COc1cc(C(c2ccccc2)N2C(=O)CC[C@H]2C(=O)O)cc(OC)c1OC (stereo partly specified) | > 100 | > 100 | > 100 | > 100 | > 100 | > 100 | > 100 | > 100 | > 100 | > 100 | – |
| N=C(N)SCc1nc(-c2ccc(Cl)cc2)no1 | 41.9 | 37.1 | 29.9 | 31.9 | > 100 | > 100 | > 100 | 38.3 | 29.3 | 41.4 | – |
| O=C1C(c2ccccc2)=C(c2ccccc2)C1(Cl)Cl | 4.13 | 2.17 | 10.6 | 2.85 | 32.9 | 15.3 | 8.03 | 6.4 | 7.36 | 9.22 | – |
| N=C1C=CC(=C(c2ccc(N)cc2)c2ccc(N)cc2)C=C1 | 27.1 | 36.1 | 8.74 | 13.9 | 18.6 | 31.5 | 9.5 | 5.83 | 12.9 | 13.1 | – |
| Clc1nc2nc(N3CCNCC3)nc(N3CCCC3)c2[nH]1 | 52.7 | 42.8 | 33.6 | 29.7 | 31.8 | 32.7 | 28.8 | 31 | 32.1 | 33.8 | – |
| Cc1cnc2c(c1)C(=O)N(c1ccc(Oc3ccccc3)cc1)S2(=O)=O | > 100 | > 100 | > 100 | > 100 | > 100 | > 100 | > 100 | > 100 | > 100 | > 100 | – |
| CCN(CC)/N=C\c1c2ccccc2cc2ccccc12 | > 100 | > 100 | > 100 | > 100 | > 100 | > 100 | 40.2 | 53.5 | > 100 | > 100 | – |
